The values below are quoted from earlier work in PMC5766898, “Eel Kisspeptins: Identification, Functional Activity, and Inhibition on both Pituitary LH and GnRH Receptor Expression” (Frontiers in Endocrinology, 2018).

Entries after “also recorded” stand apart in the source; their conditions may differ.

The subject of data set [1] is mouse KissR-1. More on the design: method as in PMID 26047834. Conditions: CHO cells; cited from earlier work.
The subject of data set [2] is LH secretion. Conditions: im injection, prepubertal and adult sea bass; Kp2(10) versus Kp1(10); cited from earlier work. From the text: This paradoxical inhibitory effect contrasts with the general action of kisspeptin as an activator of puberty and reproduction, mostly at the brain level ([70]), but also directly on the pituitary [for reviews see Ref. ([71], [72])]. […] In contrast, in other studied teleosts, the action of kisspeptin is generally ...

Data set [3] deals with human KissR-1. The arrangement: method as in PMID 26047834. Conditions: CHO cells; cited from earlier work.
Data set [4] has as its system fshβ expression by eel pituitary cells. Conditions: eel pituitary cells in primary culture; cited from earlier work.
The subject of data set [5] is type II gnrh-r. To be noted: repeated injections, juvenile female Japanese quail; cited from earlier work. From the text:
This receptor is the one increased during experimental maturation in both female and male eels ([25]). To the best of our knowledge, only a single other study investigated the effect of kisspeptin on GnRH receptor in teleost. In female striped bass at dummy run phase (ovarian development is initiated but not completed), chronic administration in vivo of both Kp1(15) and Kp2(12) induces a decrease ...

Data set [6] concerns lhβ expression by eel pituitary cells. Conditions: eel pituitary cells in primary culture; cited from earlier work. From the text:
In the eel, three Kiss receptor genes have been characterized, i.e., KissR-1, KissR-2, and KissR-3 ([19], [22]–[24]). Their expressions mainly occur in the brain, pituitary, and gonads ([19]).

As to “FNFNPFGLRF [sea bass Kp2(10), sea bass Kiss peptide]”, in data set [1], the “activation of mouse KissR-1” value is “not able to induce any activation”. In addition, the “potency in inducing LH secretion” value in data set [2] is “significantly more potent than Kp1(10) in inducing LH secretion”. The “activation of human KissR-1” value in data set [3] was “can efficiently activate human KissR-1”.

Take “YNWNSFGLRF [human/lamprey Kp1(10), heterologous kisspeptin]”: in data set [4], the “effect on fshβ expression, heterologous kisspeptins” value is given as “no effect on fshβ”. Further, in data set [5], the “effect on pituitary expression of type II gnrh-r” value is given as “upregulated pituitary expression of type II”. Besides, in data set [6], the “effect on lhβ expression, heterologous kisspeptins” value is “can inhibit lhβ expression; also recorded: specific in vitro inhibitory effect”.
